From patent publication US20100267561A1, “HERBICIDAL PYRIDAZINONE DERIVATIVES” (priority 2007, published 2010)
Like-named read-outs stand apart in the source and are kept apart here.

Legend:
Format in all cases: in vivo
[1] = test system: cocklebur (Xanthium strumarium); test: Test B pre-/postemergence plant response; conditions: Xanthium strumarium, read-out: Plant response rating, Cocklebur; for pest or weed control at 62 g/ha: 62 g ai/ha; for pest or weed control at 125 g/ha: 125 g ai/ha
In short: (§1)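 Preemergence and postemergence (plants 2-18 cm, 1- to 4-leaf stage) applications used test chemicals in a non-phytotoxic solvent with surfactant. Plants were held in a greenhouse 13 to 15 days, then rated visually against controls on a 0-100 scale (0 no effect, 100 complete control).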

[2] = test system: bermudagrass (Cynodon dactylon); test: Test B pre-/postemergence plant response; conditions: Cynodon dactylon, read-out: Plant response rating, Bermudagrass; for pest or weed control at 16 g/ha: 16 g ai/ha; for pest or weed control at 31 g/ha: 31 g ai/ha, 100 complete control; for pest or weed control at 62 g/ha: 62 g ai/ha; for pest or weed control at 125 g/ha: 125 g ai/ha
In short: as §1

[3] = test system: yellow nutsedge (Cyperus esculentus); test: Test B pre-/postemergence plant response; conditions: Cyperus, read-out: Plant response rating, Nutsedge, Yellow; for pest or weed control at 16 g/ha: 16 g ai/ha; for pest or weed control at 31 g/ha: 31 g ai/ha, 100 complete control; for pest or weed control at 62 g/ha: 62 g ai/ha; for pest or weed control at 125 g/ha: 125 g ai/ha
In short: as §1

[4] = test system: wheat (Triticum aestivum); test: Test A pre-/postemergence plant response; conditions: Triticum aestivum, 240 h, read-out: Plant response rating, Wheat; for plant injury at 125 g/ha: 125 g ai/ha; for plant injury at 500 g/ha: 500 g ai/ha
In short: (§2)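 Ratings are visual, 0–100, where 100 means complete control and 0 no effect, taken roughly 10 days after treatment by comparison with untreated controls. Formulation: non-phytotoxic solvent mixture with surfactant.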

[5] = test system: morningglory (Ipomoea coccinea); test: Test A pre-/postemergence plant response
In short: as §2

corn (Zea mays) = test: Test A pre-/postemergence plant response; conditions: Zea mays, 240 h; for Corn plant response rating (crop injury, 0 = no effect, 100 = complete kill) at 125 g/ha: 125 g ai/ha; for Corn plant response rating (crop injury, 0 = no effect, 100 = complete kill) at 500 g/ha: 500 g ai/ha
In short: as §2

[6] = test system: velvetleaf (Abutilon theophrasti); test: Test A pre-/postemergence plant response
In short: as §2

[7] = test system: pigweed (Amaranthus retroflexus); test: Test A pre-/postemergence plant response; conditions: Amaranthus retroflexus, 240 h, read-out: Plant response rating, Pigweed; for pest or weed control at 125 g/ha: 125 g ai/ha; for pest or weed control at 500 g/ha: 500 g ai/ha
In short: as §2

[8] = test system: giant foxtail (Setaria faberi); test: Test A pre-/postemergence plant response; conditions: Setaria faberi, 240 h, read-out: Plant response rating, Foxtail, Giant; for pest or weed control at 125 g/ha: 125 g ai/ha; for pest or weed control at 500 g/ha: 500 g ai/ha
In short: as §2

[9] = test system: large crabgrass (Digitaria sanguinalis); test: Test A pre-/postemergence plant response; conditions: Digitaria sanguinalis, 240 h, read-out: Plant response rating, Crabgrass, Large; for pest or weed control at 125 g/ha: 125 g ai/ha; for pest or weed control at 500 g/ha: 500 g ai/ha
In short: as §2

[10] = test system: barnyardgrass (Echinochloa crus-galli); test: Test A pre-/postemergence plant response; conditions: Echinochloa crus-galli, 240 h, read-out: Plant response rating, Barnyardgrass; for pest or weed control at 125 g/ha: 125 g ai/ha; for pest or weed control at 500 g/ha: 500 g ai/ha
In short: as §2

[11] = test system: chickweed (Stellaria media); test: Test B postemergence plant response; conditions: Postemergence
In short: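 Postemergence spray on 1- to 4-leaf plants (2–18 cm); greenhouse 13–15 d; visual rating vs controls, 0 = no effect, 100 = complete control; dash = not tested.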

[12] = post-emergence, Postemergence, scale 0 to 100
[13] = pre-emergence, Preemergence, scale 0 to 100
[14] = post-emergence, Postemergence, scale 0 to 100, 0 no effect
[15] = pre-emergence, Preemergence, scale 0 to 100 (0 no effect, 100 complete control)
[16] = pre-emergence, Preemergence, 0 to 100 scale, 0 no effect
[17] = post-emergence, Postemergence, 0 to 100 scale, 0 no effect, 100 complete control
[18] = pre-emergence, Preemergence, 0 to 100 scale (0 no effect, 100 complete control)
[19] = Postemergence, 125 g ai/ha, 0 to 100 scale, 0 no effect, 100 complete control
[20] = Postemergence, 500 g ai/ha, 0 to 100 scale, 0 no effect, 100 complete control
[21] = Preemergence, 125 g ai/ha, 0 to 100 scale (0 no effect, 100 complete control)
[22] = Preemergence, 500 g ai/ha, 0 to 100 scale (0 no effect, 100 complete control)

## CCc1cc(-c2ccc(C(F)(F)F)cc2)nn1-c1c(O)cnn(C)c1=O [Compound 11, 4-[5-ethyl-3-[4-(trifluoromethyl)phenyl]-1H-pyrazol-1-yl]-5-hydroxy-2-methyl-3(2H)-pyridazinone]
[1]; post-emergence, Postemergence, 16 g ai/ha, scale 0 to 100
  pest or weed control at 16 g/ha: 0%
[1]; post-emergence, Postemergence, 31 g ai/ha, scale 0 to 100, 0 no effect, 100 complete control
  pest or weed control at 31 g/ha: 0%
[1]; [12]
  pest or weed control at 62 g/ha: 0%
  pest or weed control at 125 g/ha: 0%
[1]; [13]
  pest or weed control at 62 g/ha: 0%
  pest or weed control at 125 g/ha: 0%
[2]; [12]
  pest or weed control at 16 g/ha: 100%
  pest or weed control at 62 g/ha: 100%
  pest or weed control at 125 g/ha: 100%
[2]; [14]
  pest or weed control at 31 g/ha: 100%
[2]; [15]
  pest or weed control at 16 g/ha: 100%
[2]; [16]
  pest or weed control at 31 g/ha: 100%
[2]; [13]
  pest or weed control at 62 g/ha: 100%
  pest or weed control at 125 g/ha: 100%
[3]; [12]
  pest or weed control at 16 g/ha: 0%
  pest or weed control at 62 g/ha: 0%
  pest or weed control at 125 g/ha: 0%
[3]; [14]
  pest or weed control at 31 g/ha: 0%
[3]; [15]
  pest or weed control at 16 g/ha: 0%
[3]; [16]
  pest or weed control at 31 g/ha: 0%
[3]; [13]
  pest or weed control at 62 g/ha: 0%
  pest or weed control at 125 g/ha: 0%
[4]; [17]
  plant injury at 125 g/ha: 80%
  plant injury at 500 g/ha: 100%
[4]; [18]
  plant injury at 125 g/ha: 100%
  plant injury at 500 g/ha: 100%
[5]; [19]
  Plant response rating, Morningglory: 0
[5]; [20]
  Plant response rating, Morningglory: 0
[5]; [21]
  Plant response rating, Morningglory: 0
[5]; [22]
  Plant response rating, Morningglory: 30
Corn (Zea mays); [17]
  Corn plant response rating (crop injury, 0 = no effect, 100 = complete kill) at 125 g/ha: 90%
  Corn plant response rating (crop injury, 0 = no effect, 100 = complete kill) at 500 g/ha: 90%
Corn (Zea mays); [18]
  Corn plant response rating (crop injury, 0 = no effect, 100 = complete kill) at 125 g/ha: 90%
  Corn plant response rating (crop injury, 0 = no effect, 100 = complete kill) at 500 g/ha: 100%
[6]; [19]
  Plant response rating, Velvetleaf: 0
[6]; [20]
  Plant response rating, Velvetleaf: 0
[6]; [21]
  Plant response rating, Velvetleaf: 0
[6]; [22]
  Plant response rating, Velvetleaf: 0
[7]; [17]
  pest or weed control at 125 g/ha: 0%
  pest or weed control at 500 g/ha: 0%
[7]; [18]
  pest or weed control at 125 g/ha: 0%
  pest or weed control at 500 g/ha: 30%
[8]; [17]
  pest or weed control at 125 g/ha: 90%
  pest or weed control at 500 g/ha: 100%
[8]; [18]
  pest or weed control at 125 g/ha: 100%
  pest or weed control at 500 g/ha: 100%
[9]; [17]
  pest or weed control at 125 g/ha: 90%
  pest or weed control at 500 g/ha: 100%
[9]; [18]
  pest or weed control at 125 g/ha: 100%
  pest or weed control at 500 g/ha: 100%
[10]; [17]
  pest or weed control at 125 g/ha: 100%
  pest or weed control at 500 g/ha: 100%
[10]; [18]
  pest or weed control at 125 g/ha: 100%
  pest or weed control at 500 g/ha: 100%
[11]; 16 g ai/ha, scale 0 to 100
  Plant response rating, Chickweed: 0
[11]; 31 g ai/ha, scale 0 to 100, 0 no effect, 100 complete control
  Plant response rating, Chickweed: 0
[11]; 62 g ai/ha, scale 0 to 100
  Plant response rating, Chickweed: 0
[11]; 125 g ai/ha, scale 0 to 100
  Plant response rating, Chickweed: 0
